Results reported in US8148392B2, “2-indolyl imidazo [4,5-d] phenanthroline derivatives and their use in the treatment of cancer” (Lorus Therapeutics Inc., priority 2005, dated 2012).
“Also recorded” adds a separate entry of the source. Like-named read-outs stand apart in the source and are kept apart here.

Tests used:
[1] = system: MDA-MB-435 breast cancer cells; assay: XTT cell proliferation assay, MDA-MB-435; format: cell-based, human; details: read-out: IC50 (cell growth inhibition)
Description: (§1) Cell growth inhibition IC50 (μM) by compounds of Formula I was tested on various cancer cell types by XTT cell proliferation assay. The growth inhibitory effects of the compounds of Formula I as shown below for the melanoma cell line SK-MEL-2 were reproducible by Lorus Therapeutics Inc.

CCRF-CEM leukemia cells = assay: XTT cell proliferation assay, CCRF-CEM; format: cell-based, human; details: read-out: IC50 (cell growth inhibition)
Description: as §1

SK-MEL-2 melanoma cells = assay: XTT cell proliferation assay, SK-MEL-2; format: cell-based, human; details: read-out: IC50 (cell growth inhibition)
Description: as §1

MTF-1 = MTF-1 gene expression in HT-29 cells, RT-PCR; format: cell-based, human; details: for MTF-1 expression change with zinc supplement: HT-29, 1 μM compound plus ZnCl2, 8 hr; for MTF-1 gene expression, change: HT-29, 1 μM, in words
Description: The gene expression of MTF-1 was examined by RT-PCR following treatment of HT-29 cells with 1 μM compound 3 for indicated time.
To assess the cellular response to zinc depletion, the gene expression of zinc-sensitive transcription factor MTF-1 was examined.
The ability of compounds of Formula I to modulate gene expression of MT1A (FIG. 55A), MTF-1 (FIG. 55B), Cyclin D1 (FIG. 55C) and KLF4 (FIG. 55D) was determined by RT-PCR. HT-29 cells were treated with 1 μM compound 3 or compound 7, 35 μM ZnCl2, compound 3 and ZnCl2 together, or compound 7 and ZnCl2 together for 8 to 16 hr. The respective gene expression was normalized with β-actin gene expression in the same sample. Fold change in gene expression was expressed relative to the respective gene level of DMSO control.
The effect of compound 3 and compound 64 on gene expression changes in MT1A (FIG. 57A), MTF-1 (FIG. 57B), Cyclin D1 (FIG. 57C) and KLF4 (FIG. 57D) in HT-29 cells was determined by RT-PCR. HT-29 cells were treated with 1 μM compound 3 or compound 64, 35 μM ZnCl2, compound 3 and ZnCl2 together, or compound 64 and ZnCl2 together for 8 to 16 hr. The respective gene expression was normalized with β-actin gene expression in the same sample. Fold change in gene expression was expressed relative to the respective gene level of DMSO control.

KLF4 [2] = assay: KLF4 gene expression by RT-PCR, DU-145; format: cell-based, human; details: DU-145, relative to vehicle control as 1
From the text: (§2) Gene expression levels of KLF4, induced by compounds of Formula I, were also examined on various cancer cell types by RT-PCR. Fold changes in KLF4 in compound-treated cells were expressed relative to KLF4 expression in vehicle control-treated cells of respective cell type as “1”. […] Additionally, xenografts of MDA-MB-435 implanted into mammary fat pads of female SCID mice have shown immunohistochemical staining consistent with melanocytic origin (Ellison G, Klinowska T, Westwood R F, Docter E, French T, Fox J C. (2002) Mol Pathol. 55(5): 294-299). The breast cancer cell line MDA-MB-435 may be expected to function differently than the other breast cancer cell lines.

[3] = system: human colon carcinoma HT-29 cells; assay: XTT cell proliferation assay, HT-29; format: cell-based
Method in brief: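 HT-29 cells in McCoy's 5A with 10% FBS, 37° C., 5% CO2, exposed to varying compound concentrations for 6-7 days. Viable cells quantified by XTT reduction to formazan; growth inhibition expressed as IC50 (μM).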

KLF4 [4] = assay: KLF4 gene expression by RT-PCR, MDA-MB-435; format: cell-based, human; details: MDA-MB-435, relative to vehicle control as 1
From the text: as §2

KLF4 [5] = assay: KLF4 gene expression by RT-PCR, H-460; format: cell-based, human; details: for KLF2, KLF4 and KLF6 gene expression: H-460, 2.5 μM; for KLF4 (gene fold increase): H-460, relative to vehicle control as 1
From the text: as §2
Expressions of KLF2, 4 and 6 genes in H-460 cells, treated with vehicle control or 2.5 μM compound 3 or compound 7, were measured by RT-PCR. Gene expression was presented relative to respective gene expression in vehicle control-treated group as “1”.

[6] = Homo sapiens, HT-29, XTT, 6-7 days, Table 3, read-out: IC50
[7] = Homo sapiens, HT-29, XTT, as Example 13, Table 7, read-out: IC50
[8] = Homo sapiens, HT-29 colon, Table 8, read-out: IC50 (cell growth inhibition)

For `Cc1[nH]c2ccc(F)cc2c1-c1nc2c3cccnc3c3ncccc3c2[nH]1` [Compound 7], the IC50 ([1]; Homo sapiens) was 0.2 µM, the IC50 (CCRF-CEM leukemia cells; Homo sapiens) was 0.4 µM and the IC50 (SK-MEL-2 melanoma cells; Homo sapiens) was 0.2 µM. The “MTF-1 expression change with zinc supplement” value (shortened to “MTF-1 expression change”) (MTF-1) was “reversed by addition of zinc supplement”, the “MTF-1 gene expression, change” value (MTF-1) was “decreased expressions of MT1A, MTF-1 and Cyclin D1” and the “KLF4 (gene fold increase)” value (KLF4 [2]) was 11.24 fold. It also gave an IC50 [3, 6] of 0.7 µM, an IC50 [3, 7] of 0.7 µg/mL and an IC50 [3, 8] of 0.8 µM. For the same molecule, the “KLF4 (gene fold increase)” value (KLF4 [4]) was 11.71 fold, the “KLF2, KLF4 and KLF6 gene expression” value (KLF4 [5]) was “increased KLF4 as most significantly changed gene” and the “KLF4 (gene fold increase)” value (KLF4 [5]) was 2.1 fold.
For `Cc1[nH]c2ccccc2c1-c1nc2c3cccnc3c3ncccc3c2[nH]1` [Compound 3], the IC50 ([1]; Homo sapiens) was 0.35 µM, the IC50 (CCRF-CEM leukemia cells; Homo sapiens) was 0.42 µM and the IC50 (SK-MEL-2 melanoma cells; Homo sapiens) was 0.25 µM. For the same molecule, the “MTF-1 expression change” value (MTF-1) was “recovered by addition of zinc supplement; also recorded: reversed by addition of zinc supplement”, the “MTF-1 gene expression, change” value (MTF-1) was “Time-dependent decreases; also recorded: decrease in MTF-1 expression was observed after 8 hr treatment; also recorded: significant decrease in gene expression of MTF-1; also recorded: decreased expressions of MT1A, MTF-1 and Cyclin D1” and the “KLF4 (gene fold increase)” value (KLF4 [2]) was 9.16 fold. It also gave an IC50 [3, 6] of 0.6 µM, an IC50 [3, 7] of 0.6 µg/mL and an IC50 [3, 8] of 0.71 µM. For the same molecule, the “KLF4 (gene fold increase)” value (KLF4 [4]) was 9.09 fold, the “KLF2, KLF4 and KLF6 gene expression” value (KLF4 [5]) was “increased KLF4 as most significantly changed gene” and the “KLF4 (gene fold increase)” value (KLF4 [5]) was 3.4 fold.
`CCc1cccc2c(-c3nc4c5cccnc5c5ncccc5c4[nH]3)c(C(C)(C)C)[nH]c12` [Compound 64] showed an IC50 [1] of 0.5 µM, an IC50 (CCRF-CEM leukemia cells) of 0.25 µM and an IC50 (SK-MEL-2 melanoma cells) of 0.2 µM. For the same molecule, the “MTF-1 expression change” value (MTF-1) was “reversed by addition of zinc supplement”, the “MTF-1 gene expression, change” value (MTF-1) was “decreased expressions of MT1A, MTF-1 and Cyclin D1” and the “KLF4 (gene fold increase)” value (KLF4 [2]) was 6.75 fold. For the same molecule, the IC50 ([3]; HT-29, XTT, as Example 13, Table 7) was 0.15 µg/mL, the IC50 ([3]; HT-29 colon, Table 8, read-out: IC50 (cell growth inhibition)) was 0.15 µM and the “KLF4 (gene fold increase)” value (KLF4 [4]) was 7.59 fold. The “KLF4 (gene fold increase)” value (KLF4 [5]) was 1.64 fold.
